This is an account of results in ChEMBL document CHEMBL1121396, “10,10-Difluoro-13-dehydroprostacyclin: a chemically and metabolically stabilized potent prostacyclin” (J Med Chem, 1980).

Experiment [1] is described as follows: Tested for effect to cause relaxation of […] mesenteric artery previously contracted by PGF2-alpha. The format is functional.
The nature of experiment [2]: Tested for effect to cause relaxation of bovine coronary artery. The format is functional, tissue-based, Bos taurus.

Regarding `CCCCC[C@H](O)C#CC1C2C/C(=C\CCCC(=O)O)OC2C(F)(F)C1O` (some centres undefined), the EC50 in experiment [1] was 2.3 nM; in experiment [2], 8.5 nM.
For `CCCCC[C@H](O)/C=C/[C@@H]1[C@H]2C/C(=C/CCCC(=O)O)O[C@H]2C[C@H]1O` [EPOPROSTENOL] the same measures were 3.3 nM and 28 nM.
